Experimental data reported in ChEMBL document CHEMBL5724806, “Unraveling interindividual differences and functional consequences of gut microbial metabolism of immunosuppressants” (2024).

What was measured:
Assay type in all cases: ADME
[1] = (§1) The drug is tested on the gut metagenome community of P-04 with ENA study accession number: PRJEB31790 for biotransformation under microaerobic condition. The drug concentrations were measured over 7 timepoints collected between 0 and 12 hours of incubation by liquid-chromatography-coupled mass spectrometry (LC–MS); parameters: dose 5 uM, timepoint 0, 0.75, 1.5, 3, 6, 9, 12 hours; details: 5 µM
[2] = as §1, with “T-02” for “P-04”; parameters: dose 5 uM, timepoint 0, 0.75, 1.5, 3, 6, 9, 12 hours; details: 5 µM
[3] = The drug is tested on Gemella morbillorum strain: DSM20572 for biotransformation under microaerobic condition. The drug concentrations were measured over 6 timepoints collected between 0 and 12 hours of incubation by liquid-chromatography-coupled mass spectrometry (LC–MS); parameters: dose 5 uM, timepoint 0, 1.5, 3, 6, 9, 12 hours; details: 5 µM
[4] = The drug is tested on Eubacterium hallii strain: DSM3353 for biotransformation under anaerobic condition. The drug concentrations were measured over 6 timepoints collected between 0 and 12 hours of incubation by liquid-chromatography-coupled mass spectrometry (LC–MS); parameters: dose 5 uM, timepoint 0, 1.5, 3, 6, 9, 12 hours; details: anaerobutyricum hallii, 5 µM
[5] = The drug is tested on Bifidobacterium longum strain: DSM20088 for biotransformation under microaerobic condition. The drug concentrations were measured over 6 timepoints collected between 0 and 12 hours of incubation by liquid-chromatography-coupled mass spectrometry (LC–MS); parameters: dose 5 uM, timepoint 0, 1.5, 3, 6, 9, 12 hours; details: 5 µM
[6] = The drug is tested on Streptococcus mitis strain: DSM12643 for biotransformation under anaerobic condition. The drug concentrations were measured over 6 timepoints collected between 0 and 12 hours of incubation by liquid-chromatography-coupled mass spectrometry (LC–MS); parameters: dose 5 uM, timepoint 0, 1.5, 3, 6, 9, 12 hours; details: 5 µM
[7] = The drug is tested on Streptococcus anginosus strain: DSM20563 for biotransformation under anaerobic condition. The drug concentrations were measured over 6 timepoints collected between 0 and 12 hours of incubation by liquid-chromatography-coupled mass spectrometry (LC–MS); parameters: dose 5 uM, timepoint 0, 1.5, 3, 6, 9, 12 hours; details: 5 µM
[8] = The drug is tested on Parabacteroides merdae strain: DSM19495 for biotransformation under anaerobic condition. The drug concentrations were measured over 6 timepoints collected between 0 and 12 hours of incubation by liquid-chromatography-coupled mass spectrometry (LC–MS); parameters: dose 5 uM, timepoint 0, 1.5, 3, 6, 9, 12 hours; details: 5 µM
[9] = The drug is tested on Streptococcus sanguinis strain: DSM20567 for biotransformation under anaerobic condition. The drug concentrations were measured over 6 timepoints collected between 0 and 12 hours of incubation by liquid-chromatography-coupled mass spectrometry (LC–MS); parameters: dose 5 uM, timepoint 0, 1.5, 3, 6, 9, 12 hours; details: 5 µM
[10] = as §1, with “P-02” for “P-04”, “anaerobic” for “microaerobic”; parameters: dose 5 uM, timepoint 0, 0.75, 1.5, 3, 6, 9, 12 hours; details: 5 µM
[11] = The drug is tested on Clostridium ramosum strain: DSM1402 for biotransformation under anaerobic condition. The drug concentrations were measured over 6 timepoints collected between 0 and 12 hours of incubation by liquid-chromatography-coupled mass spectrometry (LC–MS); parameters: dose 5 uM, timepoint 0, 1.5, 3, 6, 9, 12 hours; details: thomasclavelia ramosa, 5 µM
[12] = The drug is tested on Dorea formicigenerans strain: DSM3992 for biotransformation under anaerobic condition. The drug concentrations were measured over 6 timepoints collected between 0 and 12 hours of incubation by liquid-chromatography-coupled mass spectrometry (LC–MS); parameters: dose 5 uM, timepoint 0, 1.5, 3, 6, 9, 12 hours; details: 5 µM
[13] = as §1, with “T-02” for “P-04”, “anaerobic” for “microaerobic”; parameters: dose 5 uM, timepoint 0, 0.75, 1.5, 3, 6, 9, 12 hours; details: 5 µM
[14] = The drug is tested on Lactobacillus gasseri strain: DSM20243 for biotransformation under anaerobic condition. The drug concentrations were measured over 6 timepoints collected between 0 and 12 hours of incubation by liquid-chromatography-coupled mass spectrometry (LC–MS); parameters: dose 5 uM, timepoint 0, 1.5, 3, 6, 9, 12 hours; details: 5 µM
[15] = as §1, with “A-08” for “P-04”; parameters: dose 5 uM, timepoint 0, 0.75, 1.5, 3, 6, 9, 12 hours; details: 5 µM
[16] = The drug is tested on Roseburia intestinalis strain: DSM14610 for biotransformation under anaerobic condition. The drug concentrations were measured over 6 timepoints collected between 0 and 12 hours of incubation by liquid-chromatography-coupled mass spectrometry (LC–MS); parameters: dose 5 uM, timepoint 0, 1.5, 3, 6, 9, 12 hours; details: 5 µM
[17] = The drug is tested on Faecalibacterium prausnitzii strain: DSM17677 for biotransformation under anaerobic condition. The drug concentrations were measured over 6 timepoints collected between 0 and 12 hours of incubation by liquid-chromatography-coupled mass spectrometry (LC–MS); parameters: dose 5 uM, timepoint 0, 1.5, 3, 6, 9, 12 hours; details: faecalibacterium duncaniae, 5 µM
[18] = The drug is tested on Gemella haemolysans strain: DSM107751 for biotransformation under anaerobic condition. The drug concentrations were measured over 6 timepoints collected between 0 and 12 hours of incubation by liquid-chromatography-coupled mass spectrometry (LC–MS); parameters: dose 5 uM, timepoint 0, 1.5, 3, 6, 9, 12 hours; details: 5 µM
[19] = The drug is tested on Akkermansia muciniphila strain: DSM22959 for biotransformation under anaerobic condition. The drug concentrations were measured over 6 timepoints collected between 0 and 12 hours of incubation by liquid-chromatography-coupled mass spectrometry (LC–MS); parameters: dose 5 uM, timepoint 0, 1.5, 3, 6, 9, 12 hours; details: 5 µM
[20] = as §1, with “A-04” for “P-04”, “anaerobic” for “microaerobic”; parameters: dose 5 uM, timepoint 0, 0.75, 1.5, 3, 6, 9, 12 hours; details: 5 µM
[21] = as §1, with “A-09” for “P-04”; parameters: dose 5 uM, timepoint 0, 0.75, 1.5, 3, 6, 9, 12 hours; details: 5 µM
[22] = The drug is tested on Gemella morbillorum strain: DSM20572 for biotransformation under anaerobic condition. The drug concentrations were measured over 6 timepoints collected between 0 and 12 hours of incubation by liquid-chromatography-coupled mass spectrometry (LC–MS); parameters: dose 5 uM, timepoint 0, 1.5, 3, 6, 9, 12 hours; details: 5 µM
[23] = as §1, with “T-01” for “P-04”; parameters: dose 5 uM, timepoint 0, 0.75, 1.5, 3, 6, 9, 12 hours; details: 5 µM
[24] = The drug is tested on Ruminococcus gnavus strain: ATCC29149 for biotransformation under anaerobic condition. The drug concentrations were measured over 6 timepoints collected between 0 and 12 hours of incubation by liquid-chromatography-coupled mass spectrometry (LC–MS); parameters: dose 5 uM, timepoint 0, 1.5, 3, 6, 9, 12 hours; details: mediterraneibacter gnavus, 5 µM
[25] = as §1, with “A-10” for “P-04”, “anaerobic” for “microaerobic”; parameters: dose 5 uM, timepoint 0, 0.75, 1.5, 3, 6, 9, 12 hours; details: 5 µM
[26] = The drug is tested on Parabacteroides distasonis strain: DSM20701 for biotransformation under anaerobic condition. The drug concentrations were measured over 6 timepoints collected between 0 and 12 hours of incubation by liquid-chromatography-coupled mass spectrometry (LC–MS); parameters: dose 5 uM, timepoint 0, 1.5, 3, 6, 9, 12 hours; details: 5 µM
[27] = as §1, with “P-03” for “P-04”, “anaerobic” for “microaerobic”; parameters: dose 5 uM, timepoint 0, 0.75, 1.5, 3, 6, 9, 12 hours; details: 5 µM
[28] = as §1, with “A-06” for “P-04”, “anaerobic” for “microaerobic”; parameters: dose 5 uM, timepoint 0, 0.75, 1.5, 3, 6, 9, 12 hours; details: 5 µM
[29] = The drug is tested on Clostridium bolteae strain: DSM15670 for biotransformation under anaerobic condition. The drug concentrations were measured over 6 timepoints collected between 0 and 12 hours of incubation by liquid-chromatography-coupled mass spectrometry (LC–MS); parameters: dose 5 uM, timepoint 0, 1.5, 3, 6, 9, 12 hours; details: enterocloster bolteae, 5 µM
[30] = The drug is tested on Bacteroides xylanisolvens strain: HM 722 for biotransformation under anaerobic condition. The drug concentrations were measured over 6 timepoints collected between 0 and 12 hours of incubation by liquid-chromatography-coupled mass spectrometry (LC–MS); parameters: dose 5 uM, timepoint 0, 1.5, 3, 6, 9, 12 hours; details: 5 µM

SMILES	Bacterial Biotransformation [1]	Bacterial Biotransformation [2]	Bacterial Biotransformation [3]	Bacterial Biotransformation [4]	Bacterial Biotransformation [5]	Bacterial Biotransformation [6]	Bacterial Biotransformation [7]	Bacterial Biotransformation [8]	Bacterial Biotransformation [9]	Bacterial Biotransformation [10]	Bacterial Biotransformation [11]	Bacterial Biotransformation [12]	Bacterial Biotransformation [13]	Bacterial Biotransformation [14]	Bacterial Biotransformation [15]	Bacterial Biotransformation [16]	Bacterial Biotransformation [17]	Bacterial Biotransformation [18]	Bacterial Biotransformation [19]	Bacterial Biotransformation [20]	further results
CCC(C)(C)C(=O)O[C@H]1C[C@@H](C)C=C2C=C[C@H](C)[C@H](CC[C@@H]3C[C@@H](O)CC(=O)O3)[C@H]21 [SIMVASTATIN]	Compound NOT metabolized	Compound NOT metabolized	Compound NOT metabolized	Compound NOT metabolized	Compound NOT metabolized	Compound NOT metabolized	Compound NOT metabolized	Compound NOT metabolized	Compound NOT metabolized	Compound NOT metabolized	Compound NOT metabolized	Compound NOT metabolized	Compound NOT metabolized	Compound NOT metabolized	Compound NOT metabolized	Compound NOT metabolized	Compound NOT metabolized	Compound NOT metabolized	Compound NOT metabolized	Compound NOT metabolized	Bacterial Biotransformation [21]: Compound NOT metabolized; Bacterial Biotransformation [22]: Compound NOT metabolized; Bacterial Biotransformation [23]: Compound NOT metabolized; Bacterial Biotransformation [24]: Compound NOT metabolized; Bacterial Biotransformation [25]: Compound NOT metabolized; Bacterial Biotransformation [26]: Compound NOT metabolized; Bacterial Biotransformation [27]: Compound NOT metabolized; Bacterial Biotransformation [28]: Compound NOT metabolized; Bacterial Biotransformation [29]: Compound NOT metabolized; Bacterial Biotransformation [30]: Compound NOT metabolized
CO[C@H]1C[C@@H]2CC[C@@H](C)[C@@](O)(O2)C(=O)C(=O)N2CCCC[C@H]2C(=O)O[C@H]([C@H](C)C[C@@H]2CC[C@@H](O)[C@H](OC)C2)CC(=O)[C@H](C)/C=C(\C)[C@@H](O)[C@@H](OC)C(=O)[C@H](C)C[C@H](C)/C=C/C=C/C=C/1C [SIROLIMUS]	Compound NOT metabolized	Compound metabolized	Compound NOT metabolized	Compound metabolized	Compound NOT metabolized	Compound NOT metabolized	Compound NOT metabolized	Compound metabolized	Compound metabolized	Compound NOT metabolized	Compound NOT metabolized	Compound metabolized	Compound metabolized	Compound metabolized	Compound metabolized	Compound metabolized	Compound NOT metabolized	Compound metabolized	Compound NOT metabolized	Compound metabolized	Bacterial Biotransformation [21]: Compound metabolized; Bacterial Biotransformation [22]: Compound metabolized; Bacterial Biotransformation [23]: Compound NOT metabolized; Bacterial Biotransformation [24]: Compound NOT metabolized; Bacterial Biotransformation [25]: Compound metabolized; Bacterial Biotransformation [26]: Compound metabolized; Bacterial Biotransformation [27]: Compound NOT metabolized; Bacterial Biotransformation [28]: Compound metabolized; Bacterial Biotransformation [29]: Compound metabolized; Bacterial Biotransformation [30]: Compound NOT metabolized
